The record followed here is patent US8435978B2, “Substituted sulfonamide compounds” (Gruenenthal GmbH, priority 2006, dated 2013).

One test has as its target T1, human B1R receptor (Homo sapiens, UniProt P46663).
T1 construct: host or cells: CHO K1 cells (Chinese hamster ovary), stably transfected
T1 sequence (P46663 1-353): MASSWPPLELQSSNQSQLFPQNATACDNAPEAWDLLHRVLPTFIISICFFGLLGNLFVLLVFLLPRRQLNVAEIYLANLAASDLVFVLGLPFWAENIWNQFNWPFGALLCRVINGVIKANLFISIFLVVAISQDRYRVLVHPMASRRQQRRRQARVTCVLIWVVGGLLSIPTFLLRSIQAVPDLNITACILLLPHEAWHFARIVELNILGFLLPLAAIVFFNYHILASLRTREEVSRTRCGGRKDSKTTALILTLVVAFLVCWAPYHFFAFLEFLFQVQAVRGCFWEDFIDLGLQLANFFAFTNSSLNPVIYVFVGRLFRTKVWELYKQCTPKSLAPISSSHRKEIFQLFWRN
The test can be described thus: Functional study on the bradykinin receptor 1 (B1R), FLIPR Ca2+ assay, hB1R cells. The class given is cell-based. To be noted: agonist Lys-Des-Arg9-bradykinin 0.5 nM, % inhibition compared with the maximum achievable inhibition; for inhibition at 10 µM: CHO-K1, test substance 10 μM, read-out: B1R Antagonism, human [10 μM] % Inhibition. Summed up: (§1)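 CHO K1 cells stably expressing human or rat B1R were loaded with Fluo-4 and read on a FLIPR (ex 488/em 540 nm, peak fluorescence). Test compounds at 10 μM were added first, then after 10 min agonist: Lys-Des-Arg9-bradykinin 0.5 nM for hB1R, Des-Arg9-bradykinin 100 nM for rB1R; % inhibition versus maximum inhibition.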

A further test has as its target T2, B1R receptor of the rat (Rattus norvegicus, UniProt P97583).
T2 construct: host or cells: CHO K1 cells (Chinese hamster ovary), stably transfected
T2 sequence (P97583 1-337): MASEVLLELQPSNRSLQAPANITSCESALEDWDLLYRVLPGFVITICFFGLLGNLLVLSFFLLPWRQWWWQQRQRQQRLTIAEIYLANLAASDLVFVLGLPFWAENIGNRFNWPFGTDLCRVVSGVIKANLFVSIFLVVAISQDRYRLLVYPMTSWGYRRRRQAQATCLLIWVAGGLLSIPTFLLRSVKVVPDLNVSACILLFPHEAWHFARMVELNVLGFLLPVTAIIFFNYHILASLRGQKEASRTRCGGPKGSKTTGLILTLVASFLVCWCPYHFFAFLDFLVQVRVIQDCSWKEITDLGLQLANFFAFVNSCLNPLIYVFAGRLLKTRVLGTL
The test can be described thus: Functional study on the bradykinin receptor 1 (B1R), FLIPR Ca2+ assay, rB1R cells. To be noted: agonist Des-Arg9-bradykinin 100 nM, % inhibition compared with the maximum achievable inhibition; for inhibition at 10 µM: CHO-K1, test substance 10 μM, read-out: B1R Antagonism, rat [10 μM] % Inhibition. It is filed as cell-based. In short, it runs like this:
as §1

In the case of `COc1cc(C)c(S(=O)(=O)N2CCCC2COCC(=O)NC(CN2CCCC2)c2ccccc2)c(C)c1` (centres unmarked) [Example 505, 2-((1-(4-methoxy-2,6-dimethylphenylsulfonyl)pyrrolidin-2-yl)methoxy)-N-(1-phenyl-2-(pyrrolidin-1-yl)ethyl)acetamide], the values for the inhibition at 10 µM on human B1R receptor and at B1R receptor of the rat were 74% and 101%, respectively.

With `N#CCCN1CCN(C(=O)COCC2CCCCN2S(=O)(=O)c2c(Cl)cccc2Cl)CC1` (centres unmarked) [Example 506, 3-(4-(2-((1-(2,6-dichlorophenylsulfonyl)piperidin-2-yl)methoxy)acetyl)piperazin-1-yl)propanenitrile], the figures for the inhibition at 10 µM on human B1R receptor and at B1R receptor of the rat were 98.3% and 98.9%, respectively.

`COc1cc(C)c(S(=O)(=O)N2CCCCC2COCC(=O)N(Cc2ccccc2)c2cc(C)ccn2)c(C)c1` (centres unmarked) [Example 507, N-benzyl-2-((1-(4-methoxy-2,6-dimethylphenylsulfonyl)piperidin-2-yl)methoxy)-N-(4-methylpyridin-2-yl)acetamide]: the inhibition at 10 µM at human B1R receptor is -10.1%; at B1R receptor of the rat, 102%.

Turning to `COc1cc(C)c(S(=O)(=O)N2CCCCC2COCC(=O)N(Cc2ccccc2)c2cccc(C)n2)c(C)c1` (centres unmarked) [Example 508, N-benzyl-2-((1-(4-methoxy-2,6-dimethylphenylsulfonyl)piperidin-2-yl)methoxy)-N-(6-methylpyridin-2-yl)acetamide], the inhibition at 10 µM came out at 31.9% on human B1R receptor and 103% on B1R receptor of the rat.

Consider `COc1cc(C)c(S(=O)(=O)N2CCCCC2COCC(=O)N2CCN(c3cccc(C(F)(F)F)c3)CC2)c(C)c1` (centres unmarked) [Example 509, 2-((1-(4-methoxy-2,6-dimethylphenylsulfonyl)piperidin-2-yl)methoxy)-1-(4-(3-(trifluoromethyl)phenyl)piperazin-1-yl)ethanone], for which the figures for the inhibition at 10 µM on human B1R receptor and at B1R receptor of the rat were 92.7% and 102%, respectively.

For `CCN(Cc1ccncc1)C(=O)COCC1CCCCN1S(=O)(=O)c1c(C)cc(OC)cc1C` (centres unmarked) [Example 510, N-ethyl-2-((1-(4-methoxy-2,6-dimethylphenylsulfonyl)piperidin-2-yl)methoxy)-N-(pyridin-4-ylmethyl)acetamide], the inhibition at 10 µM was 51.4% at human B1R receptor and 102% at B1R receptor of the rat.

Take `COc1cc(C)c(S(=O)(=O)N2CCCCC2COCC(=O)N2CCN(c3cccc(Cl)c3)CC2)c(C)c1` (centres unmarked) [Example 511, 1-(4-(3-chlorophenyl)piperazin-1-yl)-2-((1-(4-methoxy-2,6-dimethylphenylsulfonyl)piperidin-2-yl)methoxy)ethanone]: the inhibition at 10 µM at human B1R receptor amounted to 87%; on B1R receptor of the rat it was 103%.

In the case of `COc1cc(C)c(S(=O)(=O)N2CCCCC2COCC(=O)N2CCN(c3ccc(C)c(C)c3)CC2)c(C)c1` (centres unmarked) [Example 512, 1-(4-(3,4-dimethylphenyl)piperazin-1-yl)-2-((1-(4-methoxy-2,6-dimethylphenylsulfonyl)piperidin-2-yl)methoxy)ethanone], the inhibition at 10 µM turned out to be 93% at human B1R receptor and 102% on B1R receptor of the rat.

As to `COc1cc(C)c(S(=O)(=O)N2CCCCC2COCC(=O)N2CCN(c3ncccc3C#N)CC2)c(C)c1` (centres unmarked) [Example 513, 2-(4-(2-((1-(4-methoxy-2,6-dimethylphenylsulfonyl)piperidin-2-yl)methoxy)acetyl)piperazin-1-yl)nicotinonitrile], the inhibition at 10 µM at human B1R receptor worked out at 73.5%; at B1R receptor of the rat, 101%.

As to `COc1cc(C)c(S(=O)(=O)N2CCCCC2COCC(=O)N2CCN(c3ccc(C(F)(F)F)cn3)CC2)c(C)c1` (centres unmarked) [Example 514, 2-((1-(4-methoxy-2,6-dimethylphenylsulfonyl)piperidin-2-yl)methoxy)-1-(4-(5-(trifluoromethyl)pyridin-2-yl)piperazin-1-yl)ethanone], the inhibition at 10 µM stood at 85.2% at human B1R receptor and 99% on B1R receptor of the rat.

As to `Cc1cccc(N(Cc2ccccc2)C(=O)COCC2CCCCN2S(=O)(=O)c2cc(Cl)sc2Cl)n1` (centres unmarked) [Example 515, N-benzyl-2-((1-(2,5-dichlorothiophen-3-ylsulfonyl)piperidin-2-yl)methoxy)-N-(6-methylpyridin-2-yl)acetamide], the inhibition at 10 µM came out at 30.9% on human B1R receptor and 100% at B1R receptor of the rat.

With `COc1cc(C)c(S(=O)(=O)N2CCCC2COCC(=O)N2CCN(c3ccccc3F)CC2)c(C)c1` (centres unmarked) [Example 516, 1-(4-(2-fluorophenyl)piperazin-1-yl)-2-((1-(4-methoxy-2,6-dimethylphenylsulfonyl)pyrrolidin-2-yl)methoxy)ethanone], the inhibition at 10 µM was 101% at human B1R receptor and 99.4% at B1R receptor of the rat.

As for `CCN1CCN(C(=O)COCC2CCCN2S(=O)(=O)c2c(C)cc(OC)cc2C)CC1` (centres unmarked) [Example 517, 1-(4-ethylpiperazin-1-yl)-2-((1-(4-methoxy-2,6-dimethylphenylsulfonyl)pyrrolidin-2-yl)methoxy)ethanone], the inhibition at 10 µM on human B1R receptor was found to be 98.8%; on B1R receptor of the rat it was 102%.

Take `COc1cc(C)c(S(=O)(=O)N2CCCC2COCC(=O)N2CCC(N3CCCC3)CC2)c(C)c1` (centres unmarked) [Example 518, 2-((1-(4-methoxy-2,6-dimethylphenylsulfonyl)pyrrolidin-2-yl)methoxy)-1-(4-(pyrrolidin-1-yl)piperidin-1-yl)ethanone]: the inhibition at 10 µM came out at 103% at human B1R receptor and 99.7% on B1R receptor of the rat.

Turning to `COc1cc(C)c(S(=O)(=O)N2CCCC2COCC(=O)N2CCC(N3CCOCC3)CC2)c(C)c1` (centres unmarked) [Example 519, 2-((1-(4-methoxy-2,6-dimethylphenylsulfonyl)pyrrolidin-2-yl)methoxy)-1-(4-morpholinopiperidin-1-yl)ethanone], the inhibition at 10 µM on human B1R receptor was found to be 81.9%; on B1R receptor of the rat, 103%.

Regarding `COc1cc(C)c(S(=O)(=O)N2CCCC2COCC(=O)N2CCC(N3CCCCC3)CC2)c(C)c1` (centres unmarked) [Example 520, 1-(1,4′-bipiperidin-1′-yl)-2-((1-(4-methoxy-2,6-dimethylphenylsulfonyl)pyrrolidin-2-yl)methoxy)ethanone], the inhibition at 10 µM turned out to be 103% on human B1R receptor and 102% on B1R receptor of the rat.

As for `COc1cc(C)c(S(=O)(=O)N2CCCC2COCC(=O)NCCCN2CCN(Cc3ccccc3)CC2)c(C)c1` (centres unmarked) [Example 521, N-(3-(4-benzylpiperazin-1-yl)propyl)-2-((1-(4-methoxy-2,6-dimethylphenylsulfonyl)pyrrolidin-2-yl)methoxy)acetamide], the results for the inhibition at 10 µM on human B1R receptor and at B1R receptor of the rat were 85.2% and 99.3%, respectively.

Consider `COc1cc(C)c(S(=O)(=O)N2CCCC2COCC(=O)NCCCN2CCCCC2)c(C)c1` (centres unmarked) [Example 522, 2-((1-(4-methoxy-2,6-dimethylphenylsulfonyl)pyrrolidin-2-yl)methoxy)-N-(3-(piperidin-1-yl)propyl)acetamide], for which the inhibition at 10 µM at human B1R receptor was 54.2%; at B1R receptor of the rat, 98.7%.

For `COc1cc(C)c(S(=O)(=O)N2CCCC2COCC(=O)NCCCCN2CCCC2)c(C)c1` (centres unmarked) [Example 523, 2-((1-(4-methoxy-2,6-dimethylphenylsulfonyl)pyrrolidin-2-yl)methoxy)-N-(4-(pyrrolidin-1-yl)butyl)acetamide], the inhibition at 10 µM on human B1R receptor came out at 66.4%; on B1R receptor of the rat, 101%.

As to `COc1cc(C)c(S(=O)(=O)N2CCCCC2COCC(=O)N2CCC(N3CCN(C)CC3)CC2)c(C)c1` (centres unmarked) [Example 524, 2-((1-(4-methoxy-2,6-dimethylphenylsulfonyl)piperidin-2-yl)methoxy)-1-(4-(4-methylpiperazin-1-yl)piperidin-1-yl)ethanone], the “B1R Antagonism, human [10 μM] % Inhibition” value at human B1R receptor (test substance 10 μM, hB1R CHO K1 cells) is given as 101.62%. Moreover, at B1R receptor of the rat (test substance 10 μM, rB1R CHO K1 cells), the “B1R Antagonism, rat [10 μM] % Inhibition” value is reported as 100.66%.

With `COc1cc(C)c(S(=O)(=O)N2CCCCC2COCC(=O)N2CCN(c3nc4ccccc4s3)CC2)c(C)c1` (centres unmarked) [Example 526, 1-(4-(benzo[d]thiazol-2-yl)piperazin-1-yl)-2-((1-(4-methoxy-2,6-dimethylphenylsulfonyl)piperidin-2-yl)methoxy)ethanone], the inhibition at 10 µM on human B1R receptor amounted to 73.3%; on B1R receptor of the rat it was 102%.

Consider `Cc1nccn1-c1ccc(NC(=O)COCC2CCCCN2S(=O)(=O)c2c(Cl)cccc2Cl)cc1` (centres unmarked) [Example 527, 2-((1-(2,6-dichlorophenylsulfonyl)piperidin-2-yl)methoxy)-N-(4-(2-methyl-1H-imidazol-1-yl)phenyl)acetamide], for which the inhibition at 10 µM at human B1R receptor was 97.2%; at B1R receptor of the rat it was 97.3%.

By inhibition is commonly meant the drop in the measured response relative to a control, in per cent.
